# According to EP2974714B1, “USE OF DERIVATIVES WITH C-O-P BONDS IN PATIENTS WITH RENAL FAILURE” (LABORATORIS SANIFIT, S.L., priority 2013, dated 2014):
# Columns and labels:
# [1] = system: tissue calcification in a chronic renal impairment model (5/6 nephrectomised rats); test: 5/6 nephrectomy model, IP6 by i.v. bolus; type: in vivo, SD rats; conditions: i.v. bolus 1 or 5 mg/kg, 8 weeks
# Protocol: Experimental: 48 SD rats were 5/6 nephrectomised by complete right lateral nephrectomy and 2/3 partial nephrectomy of the left kidney. 16 animals per group were treated intravenously (bolus) with 2 ml/kg saline, 1 mg/kg IP6 or 5 mg/kg IP6. The animals received a phosphate-rich diet (1% Ca, 1.2% P) containing 20% lactose. After 8 weeks the aorta, heart and remaining 1/3 kidney were collected, and the tissue calcium content determined.
# [2] = system: vitamin D-induced cardiovascular calcification in rats; test: Inhibition of vit D-induced (75,000 IU/kg x 5) cardiovascular calcification by intravenous IP6; type: in vivo, male Sprague Dawley (SD) rats
# Protocol: Experimental: male Sprague Dawley (SD) rats were divided into 7 groups and IP6 was administered intravenously daily for 14 days at a dose of 0, 0.05, 0.1, 0.5, 1, 5 and 10 mg/kg. Calcification was induced by oral administration of 75,000 IU/kg vitamin D on treatment days 3 to 7. Samples were collected. On day 14 the aortas and hearts of the animals were collected to quantify calcification.
# [3] = In vitro binding kinetics of IP6 to HAP; conditions: 130 mg HAP
# Protocol: Experimental: 130 mg HAP was incubated (in triplicate) with 7.6 µM IP6, at 37°C, pH 7.4, for different time intervals while stirring continuously.
# [4] = Release of IP6 from the HAP surface; type: binding; conditions: after incubation for 2 days in IP6-free solution
# Protocol: Experimental: 130 mg HAP was incubated in triplicate with 7.6 µM IP6, at 37°C, pH 7.4, for different time intervals while stirring continuously. Subsequently, the HAP with adsorbed IP6 was placed in an IP6-free solution and the amount of IP6 released from the surface thereof evaluated at different timepoints.
# cardiovascular function = test: Cardiovascular function after 2 h intravascular infusion in conscious dogs by telemetry; type: in vivo; conditions: for peak IP6 levels: dogs
# Protocol: Experimental: 4 male dogs were treated with 3, 10 and 30 mg/kg IP6 by infusion for 2 h in a Latin square design. A washout period of one week was performed between doses. ECGs were measured telemetrically at 1 h and 20 minutes prior to infusion and 5, 15, 30, 45 minutes, 1, 2, 6 and 24 h post-infusion. In a second stage, blood samples were taken for PK, for the same doses, at 20 minutes prior to infusion and 5, 15, 30 minutes and 1, 1.5, 2, 3 and 6 h post-infusion. In this case the washout period between doses was 2 days. Total and free calcium in the blood samples was also measured.
# proteins = test: Binding of IP6 to proteins (dialysability); type: in vitro ADME
# [5] = system: vit D-induced cardiovascular calcification in rats; test: Inhibition of vit D-induced (300,000 IU/kg x 3) cardiovascular calcification by s.c. IP6; type: in vivo, male SD rats
# Protocol: Experimental: male SD rats were divided into 9 groups. Two of said groups (sham and control groups) received s.c. saline 2 ml/kg; 6 groups received s.c. […] One group was treated with a s.c. Alzet pump loaded with 200 mg/ml IP6. Calcification was induced by oral administration of 300,000 IU/kg vitamin D (2 ml/kg) for 3 days starting on treatment day 3. […] The calcium content in heart, aorta and kidneys was determined after treatment for 7 days.
# [6] = i.v. dose of between 1 and 10 mg/kg daily for 14 days
structure (smiles),measurement,setting,value
"O=P(O)(O)O[C@H]1[C@H](OP(=O)(O)O)[C@@H](OP(=O)(O)O)[C@H](OP(=O)(O)O)[C@@H](OP(=O)(O)O)[C@H]1OP(=O)(O)O [IP6, inositol hexaphosphate]","calcification inhibition (aorta, heart, remaining kidney)",[1],no evidence of calcification inhibition
same,effect on the mineral content of the aorta and heart,[2]; i.v. 0.05 to 0.5 mg/kg daily for 14 days,did not affect
same,reduction of calcification in aorta,[2]; [6],up to 60%
same,reduction of calcification in heart,[2]; [6],≤ 68%
same,time at which adsorption maximum is reached,"[3]; 7.6 µM IP6, 37°C, pH 7.4",60 min
same,share of maximum binding achieved,"[3]; after 5 minutes, 7.6 µM IP6",Around 80%
same,IP6 remaining bound to the HAP surface,[4],80%
same,peak IP6 levels,cardiovascular function; 3 mg/kg infusion for 2 h,27 µM
same,peak IP6 levels,cardiovascular function; 10 mg/kg infusion for 2 h,150 µM
same,peak IP6 levels,cardiovascular function; 30 mg/kg infusion for 2 h,482 µM
same,mean blood ionic calcium concentrations,"cardiovascular function; infusion for 2 h, 3, 10 and 30 mg/kg",unaffected
same,"state of health, weight, cardiorespiratory function, ECG, body temperature and total and free potassium in blood","cardiovascular function; infusion for 2 h, 3, 10 and 30 mg/kg (any dose)",relatively unaffected
same,binding of IP6 to proteins,proteins,70-90%
same,compound available to be dialysed,proteins,10-30%
same,reduction in calcification,"[5]; prolonged administration, s.c. Alzet pump loaded with 200 mg/ml IP6",85%
same,efficacy (inhibition of calcification),[5]; s.c. doses of 60 and 100 mg/kg,approximately 60%
same,minimum dose that produced a significant effect on calcification,"[5]; s.c., 7 days treatment",10 mg/kg
same,EC50 for inhibition of aortic calcification,"[5]; s.c., dose-response",3.75 mg/kg
same,Emax for inhibition of aortic calcification,"[5]; s.c., dose-response",65.5%
